Measured values from patent US20240374605A1, “METHODS OF TREATING CANCER” (Foghorn Therapeutics Inc., priority 2021, published 2024).
pIC50: −log10 of the molar value.

How the values were obtained:
BRG1 = target: T1, BRG1 (Homo sapiens, UniProt P51532); assay: ATPase catalytic activity of BRG-1, in vitro biochemical assay using ADP-Glo; conditions: 30 nM BRG-1, 400 μM ATP, 1 hour room temperature; read-out: IP50 against BRG1
T1 construct: made in house; host or cells: High Five insect cells

[1] = tested on: Uveal melanoma cell lines, 92-1 or MP41; assay: 3-day growth inhibition compared with clinical PKC and MEK inhibitors (Cell-titer glow); format: cell-based; conditions: 0 to 10 μM, 3 days
[2] = tested on: Uveal melanoma cell lines (92-1, MP41, MP38, MP46) and non-small cell lung cancer cells (NCIH1299); assay: 3-day growth inhibition (Cell-titer glow), Example 12; format: cell-based; conditions: 0 to 10 μM, 3 days; FIG. 6
[3] = tested on: PKC inhibitor (PKCi)-resistant MP41 uveal melanoma cells; assay: 7-day growth inhibition assay, PKC inhibitor-resistant cells; format: cell-based
[4] = tested on: uveal melanoma, hematologic cancer, prostate cancer, breast cancer, and Ewing's sarcoma cell lines; conditions: breast cancer and Ewing's sarcoma lines vs the other tested cell lines, 0 to 10 μM, FIG. 4
parental MP41 cells = assay: 7-day growth inhibition assay, parental cells; conditions: parental MP41, 7-day; FIG. 10
[5] = tested on: 92-1 uveal melanoma cells; assay: Uveal melanoma tumor growth inhibition in vivo, subcutaneous xenograft; design: species or system Nude mice
[6] = Body weight and tolerability in tumor-bearing mice; format: in vivo; conditions: all treatments, once daily oral gavage, 3 weeks
[7] = tested on: uveal melanoma, prostate cancer, acute leukemia and histocytic lymphoma cell lines; assay: 3-day growth inhibition (Cell-titer glow), all cell lines of Example 17; format: cell-based
22RV1 = assay: 3-day growth inhibition (Cell-titer glow), 22RV1; format: cell-based; conditions: Homo sapiens, 72 h; 22RV1, Prostate, 3 days; read-out: Absolute IC50
92-1 = assay: 3-day growth inhibition (Cell-titer glow), 92-1; format: cell-based; conditions: 72 h; 92-1, Uveal melanoma, 3 days; read-out: Absolute IC50
EOL1 = assay: 3-day growth inhibition (Cell-titer glow), EOL1; format: cell-based; conditions: Homo sapiens, 72 h; EOL1, Acute myeloid leukemia, 3 days; read-out: Absolute IC50
MEL202 = assay: 3-day growth inhibition (Cell-titer glow), MEL202; format: cell-based; conditions: 72 h; MEL202, Uveal melanoma, 3 days; read-out: Absolute IC50
MP38 = assay: 3-day growth inhibition (Cell-titer glow), MP38; format: cell-based; conditions: 72 h; MP38, Uveal melanoma, 3 days; read-out: Absolute IC50
MP41 = assay: 3-day growth inhibition (Cell-titer glow), MP41; format: cell-based; conditions: 72 h; MP41, Uveal melanoma, 3 days; read-out: Absolute IC50
MP46 = assay: 3-day growth inhibition (Cell-titer glow), MP46; format: cell-based; conditions: 72 h; MP46, Uveal melanoma, 3 days; read-out: Absolute IC50
THP1 = assay: 3-day growth inhibition (Cell-titer glow), THP1; format: cell-based; conditions: Homo sapiens, THP-1, 72 h; THP1, Acute monocytic leukemia, 3 days; read-out: Absolute IC50
U937 = assay: 3-day growth inhibition (Cell-titer glow), U937; format: cell-based; conditions: Homo sapiens, U-937, 72 h; U937, Histiocytic lymphoma, 3 days; read-out: Absolute IC50

T1 sequence (P51532 whole entry): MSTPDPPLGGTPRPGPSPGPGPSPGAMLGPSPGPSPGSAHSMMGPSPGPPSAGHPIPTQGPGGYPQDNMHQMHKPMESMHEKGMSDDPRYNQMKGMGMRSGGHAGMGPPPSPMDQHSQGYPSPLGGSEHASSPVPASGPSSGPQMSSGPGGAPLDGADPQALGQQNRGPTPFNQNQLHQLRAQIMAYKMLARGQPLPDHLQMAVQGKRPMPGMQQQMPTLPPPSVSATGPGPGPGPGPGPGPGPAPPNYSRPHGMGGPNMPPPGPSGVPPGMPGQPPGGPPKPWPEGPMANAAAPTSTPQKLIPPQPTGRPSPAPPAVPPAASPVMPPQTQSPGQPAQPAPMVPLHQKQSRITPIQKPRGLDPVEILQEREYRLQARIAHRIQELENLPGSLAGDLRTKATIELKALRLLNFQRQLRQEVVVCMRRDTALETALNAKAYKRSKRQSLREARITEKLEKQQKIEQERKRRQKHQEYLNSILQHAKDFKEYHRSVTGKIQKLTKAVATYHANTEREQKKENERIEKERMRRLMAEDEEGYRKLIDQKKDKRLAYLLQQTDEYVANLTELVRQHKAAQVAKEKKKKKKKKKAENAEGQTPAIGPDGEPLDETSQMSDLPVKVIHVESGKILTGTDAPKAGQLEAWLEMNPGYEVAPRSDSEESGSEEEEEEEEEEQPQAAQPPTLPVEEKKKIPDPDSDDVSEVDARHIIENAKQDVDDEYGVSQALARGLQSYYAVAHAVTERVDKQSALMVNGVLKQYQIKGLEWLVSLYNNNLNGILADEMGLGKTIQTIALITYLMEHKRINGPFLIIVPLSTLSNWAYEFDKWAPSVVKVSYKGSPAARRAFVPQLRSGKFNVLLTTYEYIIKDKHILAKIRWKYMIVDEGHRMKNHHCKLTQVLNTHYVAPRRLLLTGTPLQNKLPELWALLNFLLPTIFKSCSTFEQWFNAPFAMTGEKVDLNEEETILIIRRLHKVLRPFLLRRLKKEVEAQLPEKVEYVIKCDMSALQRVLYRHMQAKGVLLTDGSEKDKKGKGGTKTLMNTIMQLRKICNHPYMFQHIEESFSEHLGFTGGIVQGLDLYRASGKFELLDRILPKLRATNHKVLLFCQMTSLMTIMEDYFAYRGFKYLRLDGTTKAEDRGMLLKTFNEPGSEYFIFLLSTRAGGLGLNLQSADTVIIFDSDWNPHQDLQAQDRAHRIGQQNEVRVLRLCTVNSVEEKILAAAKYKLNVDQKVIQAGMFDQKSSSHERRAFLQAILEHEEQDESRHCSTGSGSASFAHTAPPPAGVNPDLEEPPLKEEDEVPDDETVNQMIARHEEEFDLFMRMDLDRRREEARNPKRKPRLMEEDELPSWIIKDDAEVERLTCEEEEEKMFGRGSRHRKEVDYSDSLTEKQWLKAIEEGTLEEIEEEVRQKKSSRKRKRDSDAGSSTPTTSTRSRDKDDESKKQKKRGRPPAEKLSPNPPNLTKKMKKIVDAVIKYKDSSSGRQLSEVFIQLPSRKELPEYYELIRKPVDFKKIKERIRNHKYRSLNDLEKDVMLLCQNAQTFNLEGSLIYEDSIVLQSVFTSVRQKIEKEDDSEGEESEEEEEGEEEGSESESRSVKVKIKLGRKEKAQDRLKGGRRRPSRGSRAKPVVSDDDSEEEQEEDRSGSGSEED

SMILES: CSOC[C@H](NC(=O)c1ccc(N)cc1)C(=O)Nc1nc(-c2cccc(-c3ccncc3)c2)cs1 [Compound A]
- pIC50 (BRG1): 7.71
- growth inhibition compared with the clinical PKC (LXS196) and MEK (Selumetinib) inhibitors [1]: comparable growth inhibition
- onset of growth inhibition compared with the clinical PKC and MEK inhibitors [1]: faster onset of inhibition

SMILES: CSCC[C@H](NC(=O)c1ccn(S(C)(=O)=O)c1)C(=O)Nc1nc(-c2cccc(-c3ccncc3)c2)cs1 [Compound B]
- growth inhibition compared with the clinical PKC (LXS196) and MEK (Selumetinib) inhibitors [1]: more potent effects on growth inhibition
- onset of growth inhibition compared with the clinical PKC and MEK inhibitors [1]: faster onset of growth inhibition
- growth inhibition [2]: potent growth inhibition
- growth inhibition ([3]; PKCi-resistant MP41, 7-day, FIG. 10): strong growth inhibition
- sensitivity of cell lines to BRG1/BRM inhibition [4]: more sensitive
- growth inhibition (parental MP41 cells): strong growth inhibition

SMILES: CC1(N)CCN(c2cccnc2NC(=O)c2nc(-c3ncccc3C(F)(F)F)cnc2N)CC1 [LXS196, reference compound]
- sensitivity of PKCi-resistant cells relative to parental MP41 cells ([3]; 7-day, FIG. 9 and FIG. 10): could tolerate growth at higher concentrations

SMILES: COC[C@H](NC(=O)c1ccn(S(C)(=O)=O)c1)C(=O)Nc1nc(-c2cccc(N3C[C@@H](C)O[C@@H](C)C3)n2)cs1 [N—((S)-1-((4-(6-(cis-2,6-dimethylmorpholino)pyridin-2-yl)thiazol-2-yl)amino)-3-methoxy-1-oxopropan-2-yl)-1-(methylsulfonyl)-1H-pyrrole-3-carboxamide]
- tumor response at the highest dose ([5]; […] once daily oral gavage): tumor regression
- tumor growth inhibition ([5]; once daily oral gavage, increasing doses, 3 weeks): tumor growth inhibition in a dose-dependent manner
- tolerability [6]: well tolerated
- pIC50 ([7]; 72 h, 3 days of compound treatment, read-out: absolute IC50 values, all cell lines tested): > 6.46
- growth inhibition ([7]; 3 days, 0 to 2 μM (uveal melanoma lines) or 0 to 1 μM (other lines), FIG. 14): potent growth inhibition
- pIC50 (22RV1): 7.53
- pIC50 (92-1): 9.52
- pIC50 (EOL1): 7.12
- pIC50 (MEL202): 7.21
- pIC50 (MP38): 7.50
- pIC50 (MP41): 7.93
- pIC50 (MP46): 6.95
- pIC50 (THP1): 6.46
- pIC50 (U937): 7.83
